Several values for one entry are separate records, joined by “and”; a condition that tells them apart may be missing. Identical values can stand only once.
How the values were obtained:
[1] = In vitro metabolism: disappearance of parent compound in liver microsomes; type: in vitro ADME; settings: human liver microsomes; 5 uM compound, 0.5 mg/ml microsomal protein, 2 mM NADPH, 30 minutes at 37° C.
Procedure: (§1) Human, rat, dog, and monkey liver microsomes are isolated by differential centrifugation. Specimens of human liver were obtained from the International Institute for the Advancement of Medicine (Scranton, Pa.). The disappearance of the parent compound is studied in a mixture containing 5 uM compound, 0.5 mg/ml microsomal protein, and 2 mM NADPH in 50 mM K Phosphate buffer, pH 7.4. Samples are incubated for 30 minutes at 37° C. The reaction is terminated by the addition of acetonitrile and compounds analyzed by LC-MS as described above.

[2] = In vitro metabolism: disappearance of parent compound in liver microsomes (female rat); type: in vitro ADME; settings: 5 uM compound, 0.5 mg/ml microsomal protein, 2 mM NADPH, 30 minutes at 37° C.
Procedure: as §1

| Huma % p. 30′ [1] | Fem. t % rem. 30′ [2] [%] | Compound |
| --- | --- | --- |
| 63% and 54% and 37% and 38% |  | Cc1cc2c(cc1Cc1ccc(C(=O)NNc3cc(C)c4c(C)nn(C)c4n3)o1)C(C)(C)CCC2(C)C [Example C1, 5-[(3,5,5,8,8-Pentamethyl-5,6,7,8-tetrahydro-2-naphthalenyl)methyl]-N′-(1,3,4-trimethyl-1H-pyrazolo[3,4-b]pyridin-6yl)-2-furohydrazide] |
| 40% | 18 | COc1cc2c(cc1Cc1ccc(C(=O)NNc3cc(C)c4c(C)nn(C)c4n3)o1)C(C)(C)CCC2(C)C [Example C2, 5-[(3-Methoxy-5,5,8,8-tetramethyl-5,6,7,8-tetrahydro-2-naphthalenyl)methyl]-N′-(1,3,4-trimethyl-1H-pyrazolo[3,4-b]pyridin-6-yl)-2-furohydrazide] |

Source: patent publication US6903132B2, “Non-peptide GnRH agents, pharmaceutical compositions and methods for their use” (Agouron Pharmaceuticals, Inc., priority 2002, dated 2005)
